Test results taken from patent US20070049593A1 (priority 2004, published 2007).
Where a name gives a salt, the structure may show the parent alone.

Each compound was assayed against T1, HCV polymerase (Hepatitis C virus genotype 1b, UniProt P26663) (assay: biochemical). Conditions: not given.
T1 construct: a region encoding NS5B (J Virol 1991 March, 65(3), 1105-13, 544 amino acids after deletion of 47 amino acids on the C-terminal); 6xHis (C); made in house; host or cells: Escherichia coli
T1 sequence (P26663 2420-2963): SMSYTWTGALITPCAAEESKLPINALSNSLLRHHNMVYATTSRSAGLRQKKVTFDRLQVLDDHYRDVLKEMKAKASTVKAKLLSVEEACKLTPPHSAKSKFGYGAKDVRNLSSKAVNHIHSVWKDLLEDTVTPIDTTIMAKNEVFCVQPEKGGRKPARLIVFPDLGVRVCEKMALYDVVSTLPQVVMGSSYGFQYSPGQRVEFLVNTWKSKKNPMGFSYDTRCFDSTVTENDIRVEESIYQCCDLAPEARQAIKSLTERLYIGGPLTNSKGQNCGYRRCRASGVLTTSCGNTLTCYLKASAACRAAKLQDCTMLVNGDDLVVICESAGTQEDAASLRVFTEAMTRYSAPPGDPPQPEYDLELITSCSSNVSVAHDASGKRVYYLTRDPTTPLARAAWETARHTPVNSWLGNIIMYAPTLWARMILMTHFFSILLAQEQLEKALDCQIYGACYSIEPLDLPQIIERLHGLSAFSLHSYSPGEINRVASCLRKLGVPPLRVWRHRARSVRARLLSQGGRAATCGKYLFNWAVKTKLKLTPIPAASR
Set-up: species or system HCV BK strain
Method in brief: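 Recombinant HCV BK-strain NS5B (C-terminal 47 aa deleted, His6-tagged, E. coli), 0.5 μg/ml, run with 5 μg/ml in vitro-transcribed RNA template (polyU/3′X), ATP/GTP/CTP 50 μM, UTP 2 μM plus [3H]UTP, pH 7.5, 25° C, 90 min. TCA-precipitated RNA counted by scintillation; IC50 from activity with vs without compound.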
`CC[N+](CC)(CC)Cc1ccc(CC(NC(=O)c2ccc3c(C4CCCCC4)c4n(c3c2)CCOc2cc(OC)ccc2-4)C(=O)OC)cc1` (stereo not shown) [Example 2-539, N-(4-{2-[(12-cyclohexyl-3-methoxy-6,7-dihydro-5-oxa-7a-azadibenzo[a,e]azulene-9-carbonyl)amino]-2-(methoxycarbonyl)ethyl}benzyl)-N,N,N-triethylammonium chloride] was tested, and the IC50 was < 0.1 µM. For `COc1ccc2c(c1)OCCn1c-2c(C2CCCCC2)c2ccc(C(=O)NC3(C(=O)Nc4ccc5oc(=O)ccc5c4)CCC3)cc21` [Example 2-541, N-[1-(2-oxo-2H-chromen-6-ylcarbamoyl)cyclobutyl]-12-cyclohexyl-3-methoxy-6,7-dihydro-5-oxa-7a-azadibenzo[a,e]azulene-9-carboxamide], the IC50 was < 0.1 µM. In the case of `COc1ccc2c(c1)OCCn1c-2c(C2CCCCC2)c2ccc(C(=O)N[C@@H](Cc3ccc(OCc4ccccc4)cc3)c3noc(C)n3)cc21` [Example 2-542, N—[(S)-2-(4-benzyloxyphenyl)-1-(5-methyl-1,2,4-oxadiazol-3-yl)ethyl]-12-cyclohexyl-3-methoxy-6,7-dihydro-5-oxa-7a-azadibenzo[a,e]azulene-9-carboxamide], the IC50 is reported as < 0.1 µM. `COc1ccc2c(c1)OCCn1c-2c(C2CCCCC2)c2ccc(C(=O)NC3(C(=O)Nc4ccc(/C=C/C(N)=O)cc4)CCC3)cc21` [Example 2-543, N-{1-[4-((E)-2-carbamoylvinyl)phenylcarbamoyl]cyclobutyl}-12-cyclohexyl-3-methoxy-6,7-dihydro-5-oxa-7a-azadibenzo[a,e]azulene-9-carboxamide] was tested, and the IC50 was < 0.1 µM. For `CNC(=O)/C=C/c1ccc(NC(=O)C2(NC(=O)c3ccc4c(C5CCCCC5)c5n(c4c3)CCOc3cc(OC)ccc3-5)CCC2)cc1` [Example 2-544, N-{1-[4-((E)-2-methylcarbamoylvinyl)phenylcarbamoyl]cyclobutyl}-12-cyclohexyl-3-methoxy-6,7-dihydro-5-oxa-7a-azadibenzo[a,e]azulene-9-carboxamide], the IC50 was < 0.1 µM. For `COc1ccc2c(c1)OCCn1c-2c(C2CCCCC2)c2ccc(C(=O)NC(C)(C)c3ncc(-c4ccc(CO)cc4)[nH]3)cc21` [Example 2-545, N-{1-[5-(4-hydroxymethylphenyl)-1H-imidazol-2-yl]-1-methylethyl}-12-cyclohexyl-3-methoxy-6,7-dihydro-5-oxa-7a-azadibenzo[a,e]azulene-9-carboxamide], the IC50 was < 0.1 µM. In the case of `COc1ccc2c(c1)OCCn1c-2c(C2CCCCC2)c2ccc(C(=O)NC(C)(C)c3ncc(-c4ccc(C(N)=O)cc4)[nH]3)cc21` [Example 2-546, N-{1-[5-(4-carbamoylphenyl)-1H-imidazol-2-yl]-1-methylethyl}-12-cyclohexyl-3-methoxy-6,7-dihydro-5-oxa-7a-azadibenzo[a,e]azulene-9-carboxamide], the IC50 is reported as < 0.1 µM. `CNC(=O)c1ccc(-c2cnc(C(C)(C)NC(=O)c3ccc4c(C5CCCCC5)c5n(c4c3)CCOc3cc(OC)ccc3-5)[nH]2)cc1` [Example 2-547, N-{1-methyl-1-[5-(4-methylcarbamoylphenyl)-1H-imidazol-2-yl]ethyl}-12-cyclohexyl-3-methoxy-6,7-dihydro-5-oxa-7a-azadibenzo[a,e]azulene-9-carboxamide] was tested, and the IC50 was < 0.1 µM. For `COc1ccc2c(c1)OCCn1c-2c(C2CCCCC2)c2ccc(C(=O)NC(C)(C)c3ncc(-c4ccc(/C=C/C(=O)O)cc4)[nH]3)cc21` [Example 2-548, (E)-3-[4-(2-{1-[(12-cyclohexyl-3-methoxy-6,7-dihydro-5-oxa-7a-azadibenzo[a,e]azulene-9-carbonyl)amino]-1-methylethyl}-3H-imidazol-4-yl)phenyl]acrylic acid], the IC50 was < 0.1 µM. `O=C(CN1CCCCC1)Nc1ccccc1-c1cccc2c1OCCn1c-2c(C2CCCCC2)c2ccc(C(=O)O)cc21` [Example 2-549, 12-cyclohexyl-4-{2-[2-(piperidin-1-yl)acetylamino]phenyl}-6,7-dihydro-5-oxa-7a-azadibenzo[a,e]azulene-9-carboxylic acid] was tested, and the IC50 was < 0.1 µM. With `COc1ccc2c(c1)OCCn1c-2c(C2CCCCC2)c2ccc(C(=O)NC3(C(=O)Nc4cccc(/C=C/C(=O)O)c4)CCC3)cc21` [Example 2-550, (E)-3-[3-({1-[(12-cyclohexyl-3-methoxy-6,7-dihydro-5-oxa-7a-azadibenzo[a,e]azulene-9-carbonyl)amino]cyclobutanecarbonyl}amino)phenyl]acrylic acid] the IC50 was < 0.1 µM. For `CCOc1ccc2c(c1)OCCn1c-2c(C2CCCCC2)c2ccc(C(=O)NC3(C(=O)Nc4cccc(/C=C/C(=O)O)c4)CCC3)cc21` [Example 2-551, (E)-3-[3-({1-[(12-cyclohexyl-3-ethoxy-6,7-dihydro-5-oxa-7a-azadibenzo[a,e]azulene-9-carbonyl)amino]cyclobutanecarbonyl}amino)phenyl]acrylic acid], the IC50 was < 0.1 µM. For `CCOc1ccc2c(c1)OCCn1c-2c(C2CCCCC2)c2ccc(C(=O)NC3(C(=O)Nc4ccc(/C=C/C(=O)O)cc4OC)CCC3)cc21` [Example 2-552, (E)-3-[4-({1-[(12-cyclohexyl-3-ethoxy-6,7-dihydro-5-oxa-7a-azadibenzo[a,e]azulene-9-carbonyl)amino]cyclobutanecarbonyl}amino)-3-methoxyphenyl]acrylic acid], the IC50 was < 0.1 µM. `O=C(O)c1ccc2c(C3CCCCC3)c3n(c2c1)CCOc1c(-c2ccccc2CCN2CCCCC2)cccc1-3` [Example 2-553, 12-cyclohexyl-4-{2-[2-(piperidin-1-yl)ethyl]phenyl}-6,7-dihydro-5-oxa-7a-azadibenzo[a,e]azulene-9-carboxylic acid monohydrochloride] was tested, and the IC50 was < 0.1 µM. For `O=C(O)c1ccc2c(C3CCCCC3)c3n(c2c1)CCOc1c(-c2ccccc2NCCN2CCCCC2)cccc1-3` [Example 2-554, 12-cyclohexyl-4-{2-[2-(piperidin-1-yl)ethylamino]phenyl}-6,7-dihydro-5-oxa-7a-azadibenzo[a,e]azulene-9-carboxylic acid dihydrochloride], the IC50 was < 0.1 µM. For `CC(C)Oc1ccc2c(c1)OCCn1c-2c(C2CCCCC2)c2ccc(C(=O)O)cc21` [Example 2-555, 12-cyclohexyl-3-isopropoxy-6,7-dihydro-5-oxa-7a-azadibenzo[a,e]azulene-9-carboxylic acid], the IC50 was < 0.1 µM. With `CC(C)Oc1ccc2c(c1)OCCn1c-2c(C2CCCCC2)c2ccc(C(=O)NC3(C(=O)Nc4ccc(/C=C/C(=O)O)cc4)CCC3)cc21` [Example 2-556, (E)-3-[4-({1-[(12-cyclohexyl-3-isopropoxy-6,7-dihydro-5-oxa-7a-azadibenzo[a,e]azulene-9-carbonyl)amino]cyclobutanecarbonyl}amino)phenyl]acrylic acid] the IC50 was < 0.1 µM. `CN(C)C(=O)C1Cn2c(c(C3CCCCC3)c3ccc(C(=O)O)cc32)-c2ccccc2O1` (stereo not shown) [Example 3-4, 12-cyclohexyl-6-dimethylcarbamoyl-6,7-dihydro-5-oxa-7a-azadibenzo[a,e]azulene-9-carboxylic acid] was tested, and the IC50 was < 0.1 µM. `O=C(O)c1ccc2c(C3CCCCC3)c3n(c2c1)COc1ccccc1-3` [Example 4-2, 11-cyclohexyl-5-oxa-6a-azabenzo[a]fluorene-8-carboxylic acid] showed an IC50 of 0.1 to 1 µM. For `O=C(O)c1ccc2c(C3CCCCC3)c3n(c2c1)CCCc1ccccc1-3` [Example 5-2, 13-cyclohexyl-6,7-dihydro-5H-benzo[3,4]azepino[1,2-a]indole-10-carboxylic acid], the IC50 was < 0.1 µM. In the case of `O=C(O)c1ccc2c(C3CCCCC3)c3n(c2c1)Cc1ccccc1-3` [Example 5-3, 11-cyclohexyl-6H-isoindolo[2,1-a]indole-3-carboxylic acid], the IC50 is reported as 0.1 to 1 µM. Work on `O=C(O)c1ccc2c(C3CCCCC3)c3n(c2c1)CCc1ccccc1-3` [Example 5-4, 12-cyclohexyl-5,6-dihydroindolo[2,1-a]isoquinoline-9-carboxylic acid] yielded an IC50 of 0.1 to 1 µM. `O=C(O)c1ccc2c(C3CCCCC3)c3n(c2c1)C(O)c1ccccc1-3` (stereo not shown) [Example 5-6, 11-cyclohexyl-6-hydroxy-6H-isoindolo[2,1-a]indole-3-carboxylic acid] was tested, and the IC50 was 0.1 to 1 µM. In the case of `O=C(O)c1ccc2c(C3CCCCC3)c3n(c2c1)CCCn1cccc1-3` [Example 6-2, 13-cyclohexyl-6,7-dihydro-5H-pyrrolo[2′,1′:3,4][1,4]diazepino[1,2-a]indole-10-carboxylic acid], the IC50 is reported as 0.1 to 1 µM. In the case of `O=C(O)c1ccc2c(C3CCCCC3)c3n(c2n1)CCOc1cc(OCc2cc(N4CCCC4=O)ccc2N2CCOCC2)ccc1-3` [Example 7-4, 12-cyclohexyl-3-[2-(morpholin-4-yl)-5-(2-oxopyrrolidin-1-yl)benzyloxy]-6,7-dihydro-5-oxa-7a,8-diazadibenzo[a,e]azulene-9-carboxylic acid dihydrochloride], the IC50 is reported as < 0.1 µM. With `CS(=O)(=O)c1ccc(N2CCOCC2)c(COc2ccc3c(c2)OCCn2c-3c(C3CCCCC3)c3ccc(C(=O)O)nc32)c1` [Example 7-5, 12-cyclohexyl-3-[5-methanesulfonyl-2-(morpholin-4-yl)benzyloxy]-6,7-dihydro-5-oxa-7a,8-diazadibenzo[a,e]azulene-9-carboxylic acid monohydrochloride] the IC50 was < 0.1 µM. For `CC(=O)N(C)c1ccc(N2CCOCC2)c(COc2ccc3c(c2)OCCn2c-3c(C3CCCCC3)c3ccc(C(=O)O)nc32)c1` [Example 7-6, 3-[5-(N-acetyl-N-methylamino)-2-(morpholin-4-yl)benzyloxy]-12-cyclohexyl-6,7-dihydro-5-oxa-7a,8-diazadibenzo[a,e]azulene-9-carboxylic acid dihydrochloride], the IC50 was < 0.1 µM.

Same assay, conditions: read-out: HCV polymerase inhibitory activity IC50; 25° C., 90 min; [5,6-3H]UTP incorporation into RNA
For `COc1ccc2c(c1)OCCn1c-2c(C2CCCCC2)c2ccc(C(=O)NC(C)(C)c3ncc(-c4ccc(C(=O)O)cc4)[nH]3)cc21` [Example 2-540, 4-(2-{1-[(12-cyclohexyl-3-methoxy-6,7-dihydro-5-oxa-7a-azadibenzo[a,e]azulene-9-carbonyl)amino]-1-methylethyl}-3H-imidazol-4-yl)benzoic acid monohydrochloride], the IC50 was < 0.1 µM.
